# Measurements from ChEMBL document CHEMBL1201862, “PubChem BioAssay data set” (2004).
#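 The compound was tested at five concentrations on cells cultured in 96-well plates, with a 48-hour exposure period. At the GI50, growth is halved.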 Active and inactive are the calls of the source. Cut-off read from the data, not from the text of the source: active = GI50 up to about 1.1 µM and inactive = higher.
# Tests used:
# Experiment in all cases: DTP human tumour cell line panel, 48 h
# 786-0 = system: 786-0
# CAKI-1 = system: CAKI-1
# CCRF-CEM = system: CCRF-CEM
# HCT-15 = system: HCT-15
# Hs-578T = system: Hs-578T
# KM12 = system: KM12
# LOX IMVI = system: LOX IMVI
# MDA-MB-435 = system: MDA-MB-435
# NCI-H23 = system: NCI-H23
# NCI/ADR-RES = system: NCI/ADR-RES
# OVCAR-8 = system: OVCAR-8
# SF-268 = system: SF-268
# SK-MEL-5 = system: SK-MEL-5
# SN12C = system: SN12C
# T47D = system: T47D
# UACC-62 = system: UACC-62
# MDA-N = system: MDA-N
SMILES,GI50 (786-0),GI50 (CAKI-1),GI50 (CCRF-CEM),GI50 (HCT-15) [µM],GI50 (Hs-578T),GI50 (KM12),GI50 (LOX IMVI),GI50 (MDA-MB-435),GI50 (NCI-H23),GI50 (NCI/ADR-RES),GI50 (OVCAR-8),GI50 (SF-268),GI50 (SK-MEL-5),GI50 (SN12C),GI50 (T47D),GI50 (UACC-62),GI50 (MDA-N)
CCOC(=O)/C1=C(\C)N(c2ccc(C)cc2)C(=O)c2ccccc2C(=O)c2c(O)ccc(O)c21,18.2 µM (inactive),20 µM (inactive),20.6 µM (inactive),14.4,29.2 µM (inactive),23 µM (inactive),16.7 µM (inactive),18.5 µM (inactive),24.7 µM (inactive),14.9 µM (inactive),18.9 µM (inactive),27.7 µM (inactive),16.3 µM (inactive),25.9 µM (inactive),13.4 µM (inactive),28 µM (inactive),–
N#CCCN(CCC#N)c1ccc(C(=N/c2ccc(Cl)cc2)/N=N/c2ccccc2)cc1,> 100 µM (inactive),> 100 µM (inactive),> 100 µM (inactive),27.4,> 100 µM (inactive),58.5 µM (inactive),–,44.9 µM (inactive),54.2 µM (inactive),36.3 µM (inactive),> 100 µM (inactive),> 100 µM (inactive),10.3 µM (inactive),> 100 µM (inactive),12.8 µM (inactive),34.3 µM (inactive),> 100 µM (inactive)
O=C1CC2(CCNCC2)C(=O)N1N1CCOCC1,> 100 µM (inactive),> 100 µM (inactive),> 100 µM (inactive),> 100,> 100 µM (inactive),> 100 µM (inactive),> 100 µM (inactive),–,> 100 µM (inactive),> 100 µM (inactive),> 100 µM (inactive),> 100 µM (inactive),> 100 µM (inactive),> 100 µM (inactive),> 100 µM (inactive),> 100 µM (inactive),> 100 µM (inactive)
CCOC(=O)Nn1c(CC#N)nnc1Cc1ccccc1,> 100 µM (inactive),> 100 µM (inactive),–,> 100,> 100 µM (inactive),> 100 µM (inactive),–,> 100 µM (inactive),> 100 µM (inactive),> 100 µM (inactive),> 100 µM (inactive),> 100 µM (inactive),> 100 µM (inactive),> 100 µM (inactive),84.9 µM (inactive),> 100 µM (inactive),> 100 µM (inactive)
CC(=O)Oc1c2oc3cc(O)c(O)cc3c2c(OC(C)=O)c2oc3cc(O)c(O)cc3c12 [POLYOZELLIN],25.2 µM (inactive),29.2 µM (inactive),2.57 µM (inactive),25.2,12.2 µM (inactive),20.3 µM (inactive),24.5 µM (inactive),1.82 µM (inactive),2.39 µM (inactive),35.3 µM (inactive),20.2 µM (inactive),20.7 µM (inactive),18.6 µM (inactive),20.9 µM (inactive),–,16.6 µM (inactive),23.6 µM (inactive)
CC1(C)CC[C@]2(C(=O)O)CC[C@]3(C)[C@H](C(=O)C=C4[C@@]5(C)C=C(C#N)C(=O)C(C)(C)[C@@H]5CC[C@]43C)[C@@H]2C1 [BARDOXOLONE],0.16 µM (active),0.687 µM (active),0.22 µM (active),0.113,0.671 µM (active),0.279 µM (active),0.0944 µM (active),0.537 µM (active),0.174 µM (active),0.993 µM (active),0.577 µM (active),0.659 µM (active),0.258 µM (active),0.493 µM (active),0.414 µM (active),0.2 µM (active),–
Cc1ccc(S(=O)(=O)CC2CCCn3c2c(C#N)c2ccccc23)cc1 (stereo unspecified),> 100 µM (inactive),> 100 µM (inactive),> 100 µM (inactive),> 100,> 100 µM (inactive),> 100 µM (inactive),> 100 µM (inactive),> 100 µM (inactive),> 100 µM (inactive),65.5 µM (inactive),> 100 µM (inactive),> 100 µM (inactive),> 100 µM (inactive),> 100 µM (inactive),73.3 µM (inactive),57.4 µM (inactive),–
CN(CCN(C)C(=S)NN)C(=S)NN,> 100 µM (inactive),> 100 µM (inactive),> 100 µM (inactive),–,> 100 µM (inactive),> 100 µM (inactive),> 100 µM (inactive),> 100 µM (inactive),> 100 µM (inactive),–,–,> 100 µM (inactive),> 100 µM (inactive),> 100 µM (inactive),> 100 µM (inactive),> 100 µM (inactive),> 100 µM (inactive)
O=C(Nc1ccccc1)c1cc(S(=O)(=O)NC2=Nc3ccc(Cl)cc3C(c3ccccc3)N2)c(SSc2cc(Cl)c(C(=O)Nc3ccccc3)cc2S(=O)(=O)NC2=Nc3ccc(Cl)cc3C(c3ccccc3)N2)cc1Cl (stereo unspecified),> 100 µM (inactive),> 100 µM (inactive),–,> 100,> 100 µM (inactive),> 100 µM (inactive),> 100 µM (inactive),> 100 µM (inactive),> 100 µM (inactive),> 100 µM (inactive),> 100 µM (inactive),> 100 µM (inactive),> 100 µM (inactive),> 100 µM (inactive),> 100 µM (inactive),> 89.9 µM (inactive),> 100 µM (inactive)
c1ncn(C23C4C5C6C4C2C6C53)n1 (stereo unspecified),> 100 µM (inactive),–,> 100 µM (inactive),> 100,> 100 µM (inactive),> 100 µM (inactive),> 100 µM (inactive),> 100 µM (inactive),> 100 µM (inactive),> 100 µM (inactive),> 100 µM (inactive),> 100 µM (inactive),> 100 µM (inactive),> 100 µM (inactive),> 100 µM (inactive),–,> 100 µM (inactive)
CN1Cc2ccccc2S(=O)(=O)n2cccc2C1=O,> 100 µM (inactive),> 100 µM (inactive),> 100 µM (inactive),> 100,> 100 µM (inactive),> 100 µM (inactive),> 100 µM (inactive),> 100 µM (inactive),–,–,–,–,> 100 µM (inactive),> 100 µM (inactive),32.8 µM (inactive),> 100 µM (inactive),> 100 µM (inactive)
COc1cc(OC)c(OC)cc1/C=C/c1cc[n+](C)c2ccccc12,25.2 µM (inactive),> 100 µM (inactive),14.8 µM (inactive),> 100,–,19.8 µM (inactive),–,–,12.1 µM (inactive),> 100 µM (inactive),9.93 µM (inactive),51.2 µM (inactive),11 µM (inactive),–,33.4 µM (inactive),–,24.3 µM (inactive)
CCOC(=O)C(NC(=O)OC(C)(C)C)C(=O)OCC,> 100 µM (inactive),> 100 µM (inactive),> 100 µM (inactive),> 100,> 100 µM (inactive),> 100 µM (inactive),–,> 100 µM (inactive),> 100 µM (inactive),> 100 µM (inactive),> 100 µM (inactive),> 100 µM (inactive),64.1 µM (inactive),> 100 µM (inactive),> 100 µM (inactive),> 100 µM (inactive),–
CC1(C)CC(=O)c2[nH]c3ccccc3c2CC(=O)NCCc2cn1cn2,18.6 µM (inactive),> 100 µM (inactive),–,> 100,33.5 µM (inactive),> 100 µM (inactive),> 100 µM (inactive),> 100 µM (inactive),> 100 µM (inactive),> 100 µM (inactive),> 100 µM (inactive),> 100 µM (inactive),> 100 µM (inactive),> 100 µM (inactive),> 100 µM (inactive),> 100 µM (inactive),> 100 µM (inactive)
N#CC(c1ccc(O)cc1)N1CCN(C(C#N)c2ccc(O)cc2)CC1 (stereo unspecified),> 64.1 µM (inactive),> 100 µM (inactive),> 100 µM (inactive),97.3,27.7 µM (inactive),> 100 µM (inactive),> 100 µM (inactive),> 100 µM (inactive),> 100 µM (inactive),40.8 µM (inactive),24.3 µM (inactive),24.5 µM (inactive),> 100 µM (inactive),> 87.1 µM (inactive),39.5 µM (inactive),64.1 µM (inactive),–
Cc1cn(CCCCC2=NCCCN2)c(=O)[nH]c1=O,> 23.9 µM (inactive),> 15.1 µM (inactive),–,> 32.2,> 34.4 µM (inactive),> 31.3 µM (inactive),> 25.6 µM (inactive),> 26.7 µM (inactive),> 31.2 µM (inactive),> 34.8 µM (inactive),–,1.34 µM (inactive),> 28.1 µM (inactive),> 100 µM (inactive),–,> 42.2 µM (inactive),> 100 µM (inactive)
CC(C)=CCC/C(C)=C/C=C/C(C)=C/C=C/C(C)=C/C=C/C=C(C)/C=C/C=C(C)/C=C/[C@H]1C(C(C)(C)O)CC[C@]1(C)O (stereo partly specified),21.4 µM (inactive),33.5 µM (inactive),15.1 µM (inactive),19.4,22.1 µM (inactive),27.4 µM (inactive),23.3 µM (inactive),23 µM (inactive),20.2 µM (inactive),32.4 µM (inactive),20.2 µM (inactive),19.5 µM (inactive),15.5 µM (inactive),–,22.9 µM (inactive),–,25.1 µM (inactive)
O=C1N[C@H]2c3c(Cl)sc(Cl)c3/C(=N/O)[C@H]2O1,> 100 µM (inactive),> 100 µM (inactive),52.2 µM (inactive),67.9,–,> 100 µM (inactive),–,> 100 µM (inactive),–,> 100 µM (inactive),> 100 µM (inactive),> 100 µM (inactive),> 100 µM (inactive),> 100 µM (inactive),> 100 µM (inactive),> 100 µM (inactive),> 100 µM (inactive)
